Measured values from patent US9382267B2, “Small molecule inhibitors of nicotinamide phosphoribosyltransferase (NAMPT)” (The Curators of the University of Missouri, priority 2011, dated 2016).
Read-outs that look alike come from different tables or passages of the source.

Key:
[1] = test system: T47D (Breast) human tumor cell line; assay: MTT assay, T47D; assay type: cell-based
Protocol: (§1) A549, DLD1, T47D and PC3 were purchased from ATCC (Manassas, Va.). MTT assay kit was purchased from Promega (Madison, Wis.). FK866 and NMN were purchased from Enzo Life Sciences (Farmingdale, N.Y.) and Sigma (St Louis, Mo.) respectively.
(§2) Additional MTT assays are show in FIGS. 11(A)-(D) and FIG. 12 for compounds (33)-(37).
(§3) The assay was performed according to the manufacturers protocol (CycLex NAMPT Colorimetric Assay Kit, MBL International Corp., Woburn, Mass.). The NAMPT assay was performed according manufacturers protocol. Briefly we used the “1-Step Assay Method” for which following reagents were mixed to make assay buffer and kept at ice before starting the assay: 10 μL each of 10× Nampt assay buffer, nicotinamide, PRPP, ATP and EtOH; 2 μL each of recombinant NMNAT1, WST-1, ADH, diaphorase and D2O. The Nampt inhibition assay was performed by mixing 2 μl of various concentrations (to make 1 pM-100 nM) of FK866 or (6) (or 2 μL DMSO as vehicle control) with the following: 2 μL recombinant Nampt and 36 μL D2O. The reaction was initiated by adding 60 μL of 1-Step Assay Buffer to each well and mixed thoroughly followed by incubation at 30° C. for 20 mins. After this period, the absorbance at 450 nm was measured and compared with the positive control. […] TABLE 4 lists measured Half-Maximal Inhibitory Concentrations (IC50) against Human Tumor Cell Lines A549 (Lung), DLD1 (Colon), and T47D (Breast).

[2] = test system: A549 human lung cancer cell line; assay: MTT assay, A549; assay type: cell-based; details: A549 (Lung) human tumor cell line
Protocol: as §1, §2, §3

[3] = test system: DLD1 (Colon) human tumor cell line; assay: MTT assay, DLD1; assay type: cell-based
Protocol: as §1, §2, §3

A549 cells = assay: Cell rescue assay with nicotinamide mononucleotide (NMN); assay type: cell-based, human; details: A549 cells treated with 10 nM agent; 1, 10 or 100 μM NMN; 72 h; MTT
Protocol: A549 cells were treated with 10 nM (1), (5), (6), or (7). Error bars represent the mean±SD. Cell viability was measured using the MTT assay. Each measurement was repeated 4 times.
Cell rescue assays were conducted using Nicotinamide Mononucleotide (NMN) as described by Busso et al. (Busso, N.; Karababa, M.; Nobile, M.; Rolaz, A.; Van Gool, F.; Galli, M.; Leo, O.; So, A.; De Smedt, T. Pharmacological inhibition of nicotinamide phosphoribosyltransferase/visfatin enzymatic activityidentifies a new inflammatory pathway linked to NAD. PLoS One 2008, […], e2267.) Briefly, A549 and DLD1 cells were plated at a density of 10,000 cells per well in 96 well plates for overnight. Cells were then treated with 10 nM concentrations of agents (1), (5)-(7). Simultaneously, concentrations of 1, 10 or 100 μM NMN were added to the cultures. Cultures were then continued for 72 h. MTT reagent was added to the cells after 72 h for a period of 3 h and then MTT crystals were solubilized using solubilization buffer. Readings were taken at 570 nm wavelength. Control cells were considered as 100% survival to plot the inhibition and rescue graph. The experiments were repeated four times.

DLD1 = assay: Scratch test (wound healing) assay; assay type: cell-based, human; details: for relative potencies of the compounds: wound healing experiments, consistent with cell viability assays; for inhibition of cancer cell migration: 1 nM test agent, 24 h, FIG. 9
Protocol: The antimigratory effects of compounds (5)-(7) were compared with FK866 by employing a wound healing or scratch test analysis using various cell cancer lines. The assay measures the ability of a drug to inhibit cancer cell migration across a gap “scratched” in a confluent layer of cells. The cells were imaged immediately after the formation of the wound and then incubated with 1 nM concentrations of each test agent. After 24 h, the wounds were imaged again and compared with a control group of untreated cells. […] The results of the wound healing experiments are consistent with those from the cell viability assays with regard to the relative potencies of the compounds (6)>(7)>(5)>FK866.

| IC50 [1] [nM] | IC50 [2] [nM] | IC50 [3] [nM] | IC50 ([3]; DLD-1) [nM] | Molecule | cell rescue by NMN (A549 cells) | relative potencies of the compounds (DLD1) | inhibition of cancer cell migration (DLD1) |
| --- | --- | --- | --- | --- | --- | --- | --- |
| 0.58 ± 0.03 | 0.99 ± 0.03 | 2.2 ± 0.12 |  | 1-(4′-(Trans-3″-(3′″-pyridyl)acrylamido)butyl)-1,12-dicarba-closo-dodecaborane [Compound 7] | nearly complete rescue | (6)>(7)>(5)>FK866 |  |
| 0.32 ± 0.02 | 0.41 ± 0.01 | 0.31 ± 0.01 |  | 1-(4′-(Trans-3″-(3′″pyridyl)acrylamido)butyl)-1,7-dicarba-closo-dodecaborane [Compound 6] | nearly complete rescue | (6)>(7)>(5)>FK866 | highest potency |
| 3.2 ± 0.16 | 1.62 ± 0.04 |  | 3.14 ± 0.11 | O=C(/C=C/c1cccnc1)NCCCCC1CCN(C(=O)c2ccccc2)CC1 [Compound 1, reference compound] | nearly complete rescue | (6)>(7)>(5)>FK866 | partially inhibited cell migration |
| 186 ± 4.1 | 88.9 ± 1.1 |  | 20.3 ± 0.44 | O=C(/C=C/c1cccnc1)NCCC#CC12CC3CC(CC(C3)C1)C2 [Compound 4] |  |  |  |
